The record followed here is article PMC9019904, “AD Informer Set: Chemical tools to facilitate Alzheimer's disease drug discovery” (Alzheimer's & Dementia : Translational Research & Clinical …, 2022).

In test [1] the test system is BV2 (mouse microglia) cell line. Briefly: pHrodo-myelin phagocytosis/cell viability high content imaging assay: viability (cell count, nuclear area, nuclear intensity). The note with it: BV2 cells, 10 uM compound, 48 hours treatment. A digest of the protocol: (§1)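 Cells adhered overnight, then were exposed to compounds at a single 10 μM for 48 h in total, with pHrodo-myelin added for the last 20 h. High-content imaging gave cell count per well as the main viability measure plus mean nuclear intensity per cell. Duplicate wells were averaged and expressed as % of untreated control.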

Test [2] has as its system HMC3 (human microglia) cell line. The description is as above. To be noted: HMC3 cells, 10 uM compound, 48 hours treatment. In outline: as §1
For test [3], the system named is BV2 (mouse microglia) cell line. In words: pHrodo-myelin phagocytosis/cell viability high content imaging assay: phagocytosis signal. To be noted: BV2 cells, 10 uM compound, 48 hours treatment, pHrodo-myelin final 20 hours. It counts as cell-based. In outline:
(§2)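 HCI read-out ~22 h post pHrodo-myelin; phagocytosis + viability simultaneously; 3 parameters extracted; intensity up = early apoptosis, down = later apoptosis.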

The test system of test [4] is HMC3 (human microglia) cell line. Described as above. It counts as cell-based. The note with it: HMC3 cells, 10 uM compound, 48 hours treatment, pHrodo-myelin final 20 hours. A digest of the protocol: as §2

For `COc1ccc(CCN2CCN(CCCc3ccccc3)CC2)cc1OC.Cl.Cl` [UNC10302848A], in test [1], the “1. Cell count (% control)” value is recorded as 91.1 % control, the “2. Nuclear Area (% Control)” value is 105.5 % Control and the “3. Nuclear DNA Intensity (% control)” value is 98.2 % control. Also, in test [2], the “1. Cell count (% control)” value is 84.9 % control, the “2. Nuclear Area (% Control)” value was 99.2 % Control and the “3. Nuclear DNA Intensity (% control)” value was determined as 95.9 % control. For the same molecule, the “4. Phagocytosis (% control)” value in test [3] was determined as 120.8 % control. Besides, the “4. Phagocytosis (% control)” value in test [4] stood at 82.7 % control.
In the case of `c1ccc(-c2nn3c(c2-c2ccnc4cc(OCCN5CCOCC5)ccc24)CCC3)nc1` [UNC10302849A], in test [1], the “1. Cell count (% control)” value came out at 150.2 % control, the “2. Nuclear Area (% Control)” value is given as 109.6 % Control and the “3. Nuclear DNA Intensity (% control)” value amounted to 98.8 % control. In addition, in test [2], the “1. Cell count (% control)” value was 117.4 % control, the “2. Nuclear Area (% Control)” value is reported as 115.4 % Control and the “3. Nuclear DNA Intensity (% control)” value came to 85.1 % control. The “4. Phagocytosis (% control)” value in test [3] was 134.3 % control. Further, the “4. Phagocytosis (% control)” value in test [4] came out at 64.5 % control.
For the molecule `O=C(NNc1nc2cc(F)ccc2n2cccc12)c1cnccn1` [UNC10302850A], in test [1], the “1. Cell count (% control)” value stood at 29.4 % control, the “2. Nuclear Area (% Control)” value was determined as 129.5 % Control and the “3. Nuclear DNA Intensity (% control)” value is given as 94.0 % control. Also, in test [2], the “1. Cell count (% control)” value came out at 86.1 % control, the “2. Nuclear Area (% Control)” value was 94.6 % Control and the “3. Nuclear DNA Intensity (% control)” value is 106.5 % control. Further, the “4. Phagocytosis (% control)” value in test [3] is given as 362.4 % control. The “4. Phagocytosis (% control)” value in test [4] is reported as 103.0 % control.
`CCOC(=O)N1c2ccc(C(F)(F)F)cc2[C@@H](N(Cc2cc(C(F)(F)F)cc(C(F)(F)F)c2)C(=O)OC)C[C@H]1CC` [UNC10302851A]: in test [1], the “1. Cell count (% control)” value amounted to 124.9 % control, the “2. Nuclear Area (% Control)” value is 104.2 % Control and the “3. Nuclear DNA Intensity (% control)” value came out at 100.1 % control. For the same molecule, in test [2], the “1. Cell count (% control)” value was determined as 125.3 % control, the “2. Nuclear Area (% Control)” value is on record as 99.8 % Control and the “3. Nuclear DNA Intensity (% control)” value is listed as 94.2 % control. The “4. Phagocytosis (% control)” value in test [3] is recorded as 135.7 % control. In test [4], the “4. Phagocytosis (% control)” value is 85.4 % control.
Consider `CO[C@H]1C[C@@H]2CC[C@@H](C)[C@@](O)(O2)C(=O)C(=O)N2CCCC[C@H]2C(=O)O[C@H]([C@H](C)C[C@@H]2CC[C@@H](O)[C@H](OC)C2)CC(=O)[C@H](C)/C=C(\C)[C@@H](O)[C@@H](OC)C(=O)[C@H](C)C[C@H](C)/C=C/C=C/C=C/1C` [UNC10302852A], for which, in test [1], the “1. Cell count (% control)” value is 54.7 % control, the “2. Nuclear Area (% Control)” value came out at 106.2 % Control and the “3. Nuclear DNA Intensity (% control)” value was determined as 98.8 % control. In addition, in test [2], the “1. Cell count (% control)” value worked out at 103.0 % control, the “2. Nuclear Area (% Control)” value is 85.8 % Control and the “3. Nuclear DNA Intensity (% control)” value worked out at 119.9 % control. In test [3], the “4. Phagocytosis (% control)” value is recorded as 309.6 % control. In addition, the “4. Phagocytosis (% control)” value in test [4] worked out at 64.8 % control.
As to `N#Cc1ccc(COC[C@H]2O[C@@H](n3c(NCc4ccc(Cl)c(Cl)c4)nc4c(N)ncnc43)[C@H](O)[C@@H]2O)cc1` [UNC10302853A], the “1. Cell count (% control)” value is 54.5 % control in test [1] and 92.6 % control in test [2]. Moreover, the “2. Nuclear Area (% Control)” value in test [1] was found to be 107.2 % Control; in test [2], 103.1 % Control. In addition, the results for the “3. Nuclear DNA Intensity (% control)” value in test [1] and in test [2] were 111.0 % control and 98.3 % control, respectively. Moreover, the “4. Phagocytosis (% control)” value in test [3] came to 176.9 % control; in test [4], 88.3 % control.
